Series [1] relates to Trypanosoma brucei rhodesiense. Briefly: Antitrypanosomal activity against Trypanosoma brucei rhodesiense blood stream form. It is filed as functional, organism-based.
The test system of series [2] is Trypanosoma cruzi. The series can be described thus: Antitrypanosomal activity against Trypanosoma cruzi amastigotes. It is filed as functional, organism-based.
Series [3] has as its system Leishmania donovani. Briefly: Antitrypanosomal activity against Leishmania donovani amastigotes. It is filed as functional, organism-based.
The nature of series [4]: Cytotoxicity against rat L6 cells. In kind it is cell-based. Particulars: read-out: TD50 (the source's name).
Series [5] is described as follows: Lipophilicity, log D of the compound. In kind it is physicochemical. The note with it: octanol/water.
Series [6] relates to KB. The series can be described thus: Cytotoxicity against human KB cells. In kind it is functional, cell-based.
Series [7] can be described thus: Dissociation constant, pKa of the compound. It is filed as physicochemical.
Series [8] is described as follows: Stability assessed as ionization at pH 7.4. It is filed as physicochemical.
Series [9] in a line: Inhibition of Saccharomyces cerevisiae SMT.

Structures are written as SMILES. Some results are limits rather than exact numbers.

`CC(=O)O[C@H]1CC[C@@]2(C)C(=CC[C@H]3[C@@H]4CC[C@H]([C@H](C)CCC(=O)NCCCCCC(=O)O)[C@@]4(C)CC[C@@H]32)C1`: the EC50 came to 56 µM in [1], 41.9 µM in [2] and 2 µM in series [3]. In addition, the CC50 in series [4] turned out to be 63 µM.

In the case of `COC(=O)CCCNC[C@@H](C)[C@H]1CC[C@H]2[C@@H]3CC=C4C[C@@H](OC(=O)c5cccnc5)CC[C@]4(C)[C@H]3CC[C@]12C`, the values for the EC50 in series [1], in [2] and in series [3] were 0.8 µM, 2.51 µM and 13.7 µM, respectively. Also, the CC50 in [4] is 9.8 µM. For the same compound, the pH-dependent lipophilicity (logD) in series [5] came to 5.2.

On to `COC(=O)CCCNC[C@@H](C)[C@H]1CC[C@H]2[C@@H]3CC=C4C[C@@H](OC(C)=O)CC[C@]4(C)[C@H]3CC[C@]12C`, for which the concentration for a half-maximal effect (EC50) was found to be 0.012 µM in [1], 24.7 µM in series [2], 19.2 µM in series [3] and 19.2 µM in series [6].

With `COC(=O)CCCNC[C@@H](C)[C@H]1CC[C@H]2[C@@H]3CC=C4C[C@@H](OC(=O)CN(C)C)CC[C@]4(C)[C@H]3CC[C@]12C`, the figures for the half-maximal effective concentration (EC50) in series [1], in series [2] and in [3] were 6.2 µM, 11.6 µM and 18.5 µM, respectively. Further, the CC50 in series [4] stood at 24 µM. Also, the pH-dependent lipophilicity (logD) in series [5] came out at 4.4. The compound further displayed a pKa in series [7] of 7.1. Further, in series [8], the Activity is given as 34%.

Regarding `CC(=O)O[C@H]1CC[C@@]2(C)C(=CC[C@H]3[C@@H]4CC[C@H]([C@H](C)CCCNCCCCCC(=O)O)[C@@]4(C)CC[C@@H]32)C1`, the EC50 in series [1] turned out to be 11.2 µM; in series [2], 28.9 µM; in series [3], 11.4 µM. Besides, the CC50 in [4] stood at 56 µM.

`COC(=O)CCCCCNC(=O)CC[C@@H](C)[C@H]1CC[C@H]2[C@@H]3CC=C4C[C@@H](OC(C)=O)CC[C@]4(C)[C@H]3CC[C@]12C`: the EC50 in [1] came out at 14.6 µM; in series [2] it was 23 µM; in series [3], 1.6 µM. Besides, the CC50 in series [4] was above 165 µM.

For the compound `CCC(=O)O[C@H]1CC[C@@]2(C)C(=CC[C@H]3[C@@H]4CC[C@H]([C@H](C)CNCCCC(=O)OC)[C@@]4(C)CC[C@@H]32)C1`, the EC50 is 0.8 µM in series [1], 7.6 µM in series [2] and 12.1 µM in series [3]. Moreover, the CC50 in [4] stood at 21.9 µM. For the same compound, in series [5], the pH-dependent lipophilicity (logD) turned out to be 5.1.

Take `CCCC(=O)O[C@H]1CC[C@@]2(C)C(=CC[C@H]3[C@@H]4CC[C@H]([C@H](C)CNCCCC(=O)OC)[C@@]4(C)CC[C@@H]32)C1`: the concentration for a half-maximal effect (EC50) in series [1] worked out at 1.6 µM; in series [2], 1.7 µM; in [3] it was 6.8 µM. In addition, the CC50 in series [4] is 30.7 µM. Moreover, the logD in series [5] was found to be 5.6.

For `COC(=O)CCCNC[C@@H](C)[C@H]1CC[C@H]2[C@@H]3CC=C4C[C@@H](OC(=O)CC(C)C)CC[C@]4(C)[C@H]3CC[C@]12C`, the results for the concentration giving a half-maximal response (EC50) in series [1], in series [2] and in series [3] were 3.9 µM, 10.8 µM and 4.9 µM, respectively. The CC50 in series [4] came out at 33.2 µM. This compound showed a log distribution coefficient (logD) in series [5] of 6.

Take `COC(=O)CCCCCNCCC[C@@H](C)[C@H]1CC[C@H]2[C@@H]3CC=C4C[C@@H](OC(C)=O)CC[C@]4(C)[C@H]3CC[C@]12C`: the concentration giving a half-maximal response (EC50) in series [1] is 2 µM; in series [2] it was 11.1 µM; in series [3], 11.7 µM. The CC50 in [4] worked out at 7.4 µM.

In the case of `COC(=O)CCCNCCC[C@@H](C)[C@H]1CC[C@H]2[C@@H]3CC=C4C[C@@H](OC(C)=O)CC[C@]4(C)[C@H]3CC[C@]12C`, the EC50 in [1] was found to be 1.8 µM; in series [2] it was 7.4 µM; in [3], 23.8 µM. Also, in [4], the CC50 was 5.8 µM.

For the compound `COC(=O)CCCNC[C@@H](C)[C@H]1CC[C@H]2[C@@H]3CC=C4C[C@@H](OC(=O)CCC(=O)O)CC[C@]4(C)[C@H]3CC[C@]12C`, the figures for the EC50 in series [1], in series [2] and in series [3] were 9.8 µM, 13.7 µM and 35.7 µM, respectively. The CC50 in series [4] was 76.7 µM. In series [5], the log distribution coefficient (logD) was 4.1. This compound also gave a pKa in series [7] of 4.4. The Activity in series [8] turned out to be 99%.

In the case of `C[C@H](CCCN(C)C)[C@H]1CC[C@H]2C3=C(CC[C@]12C)[C@@]1(C)CC[C@H](O)C[C@@H]1CC3`, the half-maximal inhibitory concentration (IC50) in series [9] is 0.08 µM.

For the compound `CC(=O)O[C@H]1CC[C@@]2(C)C(=CC[C@H]3[C@@H]4CC[C@H]([C@H](C)CCCN5CCCC5=O)[C@@]4(C)CC[C@@H]32)C1`, the EC50 in [1] worked out at 38.3 µM; in series [2] it was 25 µM; in series [3] it was 13.9 µM. The CC50 in series [4] turned out to be 2.5 µM.

For `CC(=O)O[C@H]1CC[C@@]2(C)C(=CC[C@H]3[C@@H]4CC[C@H]([C@H](C)CCC(=O)N(C)C)[C@@]4(C)CC[C@@H]32)C1`, the EC50 in series [1] came out at 21.7 µM; in series [2], 28.2 µM; in [3], 24.6 µM. Besides, the CC50 in series [4] is above 202 µM.

Turning to `COC(=O)CCCNC[C@@H](C)[C@H]1CC[C@H]2[C@@H]3CC=C4C[C@@H](OC(=O)C(C)(C)C)CC[C@]4(C)[C@H]3CC[C@]12C`, the 50% effective concentration (EC50) was 2.2 µM in [1], 9.7 µM in [2] and 11.3 µM in series [3]. For the same compound, in [4], the CC50 amounted to 11.1 µM. Moreover, in series [5], the pH-dependent lipophilicity (logD) came to 5.8.

Regarding `COC(=O)CCCNC(=O)CC[C@@H](C)[C@H]1CC[C@H]2[C@@H]3CC=C4C[C@@H](OC(C)=O)CC[C@]4(C)[C@H]3CC[C@]12C`, the EC50 in series [1] stood at 18.4 µM; in series [2], 19.7 µM; in series [3], 3.1 µM. The CC50 in series [4] is above 174 µM.

The term EC50 denotes the concentration at which the effect is half-maximal. Read a low EC50 as an effect from little substance. One may read the logD as lipophilicity at a set pH, counting ionised and neutral species. A lower logD goes with a more hydrophilic compound. In general, pKa refers to the pH at which an ionisable group is half protonated. Read a low pKa as a group that gives up its proton readily. For orientation: IC50 means the concentration needed to halve the response being measured.

The values are drawn from ChEMBL document CHEMBL1153496, “SAR studies on azasterols as potential anti-trypanosomal and anti-leishmanial agents” (Bioorg Med Chem, 2009).
